Reference: ChEMBL document CHEMBL5385971, “Identification of novel phenylalanine derivatives bearing a hydroxamic acid moiety as potent quorum sensing inhibitors” (RSC Med Chem, 2024)
Activity calls are given as the source filed them. The rule behind the calls is not given here.

Key:
[1] = Inhibition of quorum sensing system in Pseudomonas aeruginosa transfected with lasB-gfp incubated for 20 hrs by fluorescence based multilabel plate reader analysis
Pseudomonas aeruginosa [2] = test: Growth inhibition of Pseudomonas aeruginosa transfected with lasB-gfp; format: functional, organism-based
Pseudomonas aeruginosa [3] = test: Antibiofilm activity against Pseudomonas aeruginosa PA14 assessed as inhibition of biofilm biomass at 30 uM incubated for 48 hrs by crystal violet staining based analysis relative to control; format: functional
[4] = test system: Chromobacterium violaceum; test: Inhibition of Chromobacterium violaceum ATCC 31532 quorum sensing receptor CviR at 30 uM incubated for 24 hrs by absorbance based microplate reader analysis relative to control
[5] = Potency index, ratio of 4NPO IC50 to test compound IC50 for inhibition of quorum sensing system in Pseudomonas aeruginosa transfected with lasB-gfp incubated for 20 hrs by fluorescence based multilabel plate reader analysis
[6] = test system: Chromobacterium violaceum; test: Inhibition of Chromobacterium violaceum ATCC 31532 quorum sensing receptor CviR assessed as fold change at 30 uM incubated for 24 hrs by absorbance based microplate reader analysis relative to 4NPO

IC50 [1] [µM] | inhibition [4] [%] | Ratio IC50 [5] | fold change (FC) [6] | SMILES | growth inhibition (GI) (Pseudomonas aeruginosa [2]) | inhibition at 30 µM (Pseudomonas aeruginosa [3]) [%]
> 100 | < 1 |  |  | O=C(Nc1ccc(Cl)cc1)c1ccc(C(=O)N[C@@H](Cc2ccccc2)C(=O)NO)cc1 | inactive | < 1
92.3 | < 1 |  |  | O=C(Nc1ccccc1)c1ccc(C(=O)N[C@@H](Cc2ccccc2)C(=O)NO)cc1 | inactive | 11
9.44 | 65 |  |  | O=C(N[C@@H](Cc1ccccc1)C(=O)NO)c1ccc(C2CCCCC2)cc1 | inactive | 55
> 100 | 35 |  |  | O=C(N[C@@H](Cc1ccccc1)C(=O)NO)c1ccc(Cl)c(Cl)c1 | inactive | < 1
83.5 | 11 |  |  | O=C(N[C@@H](Cc1ccccc1)C(=O)NO)c1ccc(COc2ccccc2)cc1 | inactive | 20
> 100 | < 1 |  |  | O=C(Nc1ccccc1)Nc1ccc(C(=O)N[C@@H](Cc2ccccc2)C(=O)NO)cc1 | inactive | < 1
7.12 | 79 | 4 | 1.5 | Cc1ccc(S(=O)(=O)Nc2ccc(C(=O)N[C@@H](Cc3ccccc3)C(=O)NO)cc2)cc1 | inactive | 75
10 | 58 |  |  | O=C(N[C@@H](Cc1ccccc1)C(=O)NO)c1cc(Cl)ccc1F | inactive | 40
50.2 | < 1 |  |  | O=C(N[C@@H](Cc1ccccc1)C(=O)NO)c1ccc2ccccc2n1 | inactive | < 1
